This note sets out measurements from patent US5908828A, “Synthetic peptide derivatives and the salts thereof” (Hoechst Japan Limited, priority 1994, dated 1999).

This assay has as its system ALPase activity in MC3T3-E1 cells promoted by rh-BMP-2. The assay is described as follows: Assay of BMP inhibiting activity (BMP-2 antagonist-like activity): ALPase activity in cultured MC3T3-E1 cells. It counts as cell-based, mouse. The settings on record: for ALPase activity: MC3T3-E1 cells, 2 days. On the procedure: BMP-2 antagonist-like activity of the present synthetic peptide derivatives was assayed by way of cultured MC3T3-E1 cells which were established from mouse calvaria having osteoblast-like property, by Kodama et al. (Kodama, H. et al. (1981) Jpn. J Oral. Biol., vol.23, p.899). The cultured MC3T3-E1 cells were prepared according to Takuwa et al. (Takuwa, Y. et al., (1991) Biochem.
Biophys. Res. Comuni., vol. […] ALPase is often used as an indicator enzyme for differentiation and maturity of osteoblasts and chondrocytes (Pfeilschifter, J., et al., Endocrinology (1987), vol. 121, p212-218; Rodan, G. A., et al., calcium regulating hormones and bone metabolism, Elsevir Science Publishers B.V., (1992), p 183-196).

Bridge positions count the residues as written; N and C are the ends. Ends that are not written are not given here. I, II: the chains in the order shown.

For “synthetic peptide derivative: Fragment P1 (SEQ ID NO:1, N-terminal acetyl-Cys) joined to Fragment P2 (SEQ ID NO:2) through a 4-(N-maleimidomethyl)cyclohexane-1-carbonyl linker (chain 1 {CH2CO}-CDFSDVGWNDWIVAPPGY; chain 2 AIVQTLVNSVNSKIPKA; thioether I:N-II:N via 4‑(N-maleimidomethyl)cyclohexane‑1‑carbonyl; not fully specified (N-terminus, C-terminus, bridges))”, the “inhibition of rh-BMP-2-promoted ALPase activity in MC3T3-E1 cells” value (2×10^-9 to 2×10^-6 M, result in words) is reported as “inhibited ALPase activity in MC3T3-E1 cells which were promoted by rh-BMP-2 with 2×10^-9 to 2×10^-6 M dose dependently”. The ALPase activity reads like this: (rh-BMP-2 5 ng/ml + synthetic peptide derivative 2 × 10^-7 M, n = 4) 302 ± 54 pmol/min; (rh-BMP-2 5 ng/ml + synthetic peptide derivative 2 × 10^-8 M, n = 4) 486 ± 36 pmol/min; (rh-BMP-2 5 ng/ml + synthetic peptide derivative 2 × 10^-9 M, n = 4) 632 ± 71 pmol/min; (rh-BMP-2 5 ng/ml + synthetic peptide derivative 2 × 10^-10 M, n = 4) 876 ± 120 pmol/min; (rh-BMP-2 (b ng/ml) + synthetic peptide derivative 2 × 10^-6 M, n = 1) 269 pmol/min.
